Experimental data from patent publication US9187464B2, “TRPV4 antagonists” (GlaxoSmithKline Intellectual Property (No. 2) Limited, priority 2011, dated 2015).

Target: T1, human TRPV4 (Homo sapiens, UniProt Q9HBA0)
T1 construct: expressed in transfected cells; host or cells: HEK-293-MSR-II cells transduced with 1% BacMam virus
Experiment: Ligand-gated assay (Fluo4 calcium, FLIPR; inhibition of agonist-induced activation)
Format: cell-based
Conditions: HEK-293-MSR-II cells transduced with BacMam human TRPV4; agonist at EC80
Summary of the method: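 HEK-293-MSR-II cells BacMam-transduced with human TRPV4, loaded with 2 uM Fluo-4. Compound preincubated 10 min at room temperature in HBSS pH 7.4 plus 0.01% Chaps, then agonist added at its EC80. Inhibition of agonist-evoked calcium rise read on FLIPR; IC50 reported.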

T1 sequence (Q9HBA0 whole entry): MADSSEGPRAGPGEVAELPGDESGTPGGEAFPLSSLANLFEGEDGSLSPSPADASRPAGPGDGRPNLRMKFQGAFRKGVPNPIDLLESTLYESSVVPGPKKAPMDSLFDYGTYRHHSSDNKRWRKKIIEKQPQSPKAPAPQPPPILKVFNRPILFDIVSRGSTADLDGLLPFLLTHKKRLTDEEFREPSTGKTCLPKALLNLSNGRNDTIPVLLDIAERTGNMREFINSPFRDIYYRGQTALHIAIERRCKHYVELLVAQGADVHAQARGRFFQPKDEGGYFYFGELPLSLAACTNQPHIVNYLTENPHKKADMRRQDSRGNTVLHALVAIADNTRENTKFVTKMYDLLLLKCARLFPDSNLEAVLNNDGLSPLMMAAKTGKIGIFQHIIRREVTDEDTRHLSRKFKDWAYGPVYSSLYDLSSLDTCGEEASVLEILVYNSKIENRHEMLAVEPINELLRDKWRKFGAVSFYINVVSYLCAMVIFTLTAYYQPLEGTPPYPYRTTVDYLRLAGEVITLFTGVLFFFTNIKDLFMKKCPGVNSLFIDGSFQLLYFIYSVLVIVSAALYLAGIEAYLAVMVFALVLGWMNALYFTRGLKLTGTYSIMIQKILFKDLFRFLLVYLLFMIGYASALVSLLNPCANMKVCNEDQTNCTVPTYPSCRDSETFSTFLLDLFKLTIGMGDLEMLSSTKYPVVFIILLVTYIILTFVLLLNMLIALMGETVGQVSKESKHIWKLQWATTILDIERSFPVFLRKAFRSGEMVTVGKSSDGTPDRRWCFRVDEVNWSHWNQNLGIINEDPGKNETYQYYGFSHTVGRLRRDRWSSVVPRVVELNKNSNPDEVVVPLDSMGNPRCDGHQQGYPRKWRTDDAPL

SMILES | IC50 [nM]
N#Cc1ccc2ncn(C[C@H]3CCC[C@]4(C3)CN(Cc3sc5ncccc5c3Br)C(=O)O4)c2c1 [Example 153] | 0.1 to 10
COc1cc(Cl)ncc1N1C[C@@]2(CCC[C@H](Cn3cnc4ccc(C#N)cc43)C2)OC1=O [Example 123, 1-(((5S,7S)-3-(6-chloro-4-methoxypyridin-3-yl)-2-oxo-1-oxa-3-azaspiro[4.5]decan-7-yl)methyl)-1H-benzo[d]imidazole-6-carbonitrile] | 0.1 to 10
Cc1ccc(N2C[C@@]3(CCC[C@](C)(Cn4cnc5ccc(C#N)cc54)C3)OC2=O)nc1 [Example 29, 1-{[(5S,7S)-7-methyl-3-(5-methyl-2-pyridinyl)-2-oxo-1-oxa-3-azaspiro[4.5]dec-7-yl]methyl}-1H-benzimidazole-6-carbonitrile] | 10 to 50
CC(C)(C)c1cc(N2C[C@@]3(CCC[C@](C)(Cn4cnc5ccc(C#N)cc54)C3)OC2=O)on1 [Example 1, 1-({(5S,7S)-3-[3-(1,1-Dimethylethyl)-5-isoxazolyl]-7-methyl-2-oxo-1-oxa-3-azaspiro[4.5]dec-7-yl}methyl)-1H-benzimidazole-6-carbonitrile] | 10 to 50
N#Cc1ccc2ncn(C[C@H]3CCC[C@]4(C3)CN(Cc3cn(-c5cncc(Cl)c5)nn3)C(=O)O4)c2c1 [Example 106, 1-[((5S,7S)-3-{[1-(5-chloro-3-pyridinyl)-1H-1,2,3-triazol-4-yl]methyl}-2-oxo-1-oxa-3-azaspiro[4.5]dec-7-yl)methyl]-1H-benzimidazole-6-carbonitrile] | 10 to 50
COC(C)(C)c1cnc(N2C[C@@]3(CCC[C@](C)(Cn4cnc5ccc(C#N)cc54)C3)OC2=O)cn1 [Example 162, 1-(((5S,7S)-3-(5-(2-methoxypropan-2-yl)pyrazin-2-yl)-7-methyl-2-oxo-1-oxa-3-azaspiro[4.5]decan-7-yl)methyl)-1H-benzo[d]imidazole-6-carbonitrile] | 0.1 to 10
CC(C)(CO)c1cnc(N2C[C@@]3(CCC[C@](C)(Cn4cnc5ccc(C#N)cc54)C3)OC2=O)cn1 [Example 168, 1-(((5S,7S)-3-(5-(1-hydroxy-2-methylpropan-2-yl)pyrazin-2-yl)-7-methyl-2-oxo-1-oxa-3-azaspiro[4.5]decan-7-yl)methyl)-1H-benzo[d]imidazole-6-carbonitrile] | 10 to 50
C[C@]1(Cn2cnc3ccc(C#N)cc32)CCC[C@@]2(CN(c3ncccc3C(F)(F)F)C(=O)O2)C1 [Example 26, 1-(((5S,7S)-7-Methyl-2-oxo-3-(3-(trifluoromethyl)pyridin-2-yl)-1-oxa-3-azaspiro[4.5]decan-7-yl)methyl)-1H-benzo[d]imidazole-6-carbonitrile] | 50 to 500
Cn1ccc(-c2cc(N3C[C@@]4(CCC[C@](C)(Cn5cnc6ccc(C#N)cc65)C4)OC3=O)on2)n1 [Example 51, 1-(((5S,7S)-7-methyl-3-(3-(1-methyl-1H-pyrazol-3-yl)isoxazol-5-yl)-2-oxo-1-oxa-3-azaspiro[4.5]decan-7-yl)methyl)-1H-benzo[d]imidazole-6-carbonitrile] | 10 to 50
CCn1ncc(N2C[C@@]3(CCC[C@](C)(Cn4cnc5ccc(C#N)cc54)C3)OC2=O)c1C [Example 16, 1-(((5S,7S)-3-(1-Ethyl-5-methyl-1H-pyrazol-4-yl)-7-methyl-2-oxo-1-oxa-3-azaspiro[4.5]decan-7-yl)methyl)-1H-benzo[d]imidazole-6-carbonitrile] | 0.1 to 10
CC(F)(F)c1cc(N2C[C@@]3(CCC[C@](C)(Cn4cnc5ccc(C#N)cc54)C3)OC2=O)on1 [Example 45, 1-(((5S,7S)-3-(3-(1,1-difluoroethyl)isoxazol-5-yl)-7-methyl-2-oxo-1-oxa-3-azaspiro[4.5]decan-7-yl)methyl)-1H-benzo[d]imidazole-6-carbonitrile] | 0.1 to 10
CCOc1cc(C)c(N2C[C@@]3(CCC[C@](C)(Cn4cnc5ccc(C#N)cc54)C3)OC2=O)cn1 [Example 118, 1-(((5S,7S)-3-(6-ethoxy-4-methylpyridin-3-yl)-7-methyl-2-oxo-1-oxa-3-azaspiro[4.5]decan-7-yl)methyl)-1H-benzo[d]imidazole-6-carbonitrile] | 0.1 to 10
CC(C)(F)c1cc(N2C[C@@]3(CCC[C@](C)(Cn4cnc5ccc(C#N)cc54)C3)OC2=O)on1 [Example 39, 1-(((5S,7S)-3-(3-(2-fluoropropan-2-yl)isoxazol-5-yl)-7-methyl-2-oxo-1-oxa-3-azaspiro[4.5]decan-7-yl)methyl)-1H-benzo[d]imidazole-6-carbonitrile] | 0.1 to 10
C[C@]1(Cn2cnc3ccc(C#N)cc32)CCC[C@@]2(CN(Cc3ccc(F)cn3)C(=O)O2)C1 [Example 159, 1-(((5S,7S)-3-((5-fluoropyridin-2-yl)methyl)-7-methyl-2-oxo-1-oxa-3-azaspiro[4.5]decan-7-yl)methyl)-1H-benzo[d]imidazole-6-carbonitrile] | 0.1 to 10
C[C@]1(Cn2cnc3ccc(C#N)cc32)CCC[C@@]2(CN(Cc3csc4ncccc34)C(=O)O2)C1 (relative stereo) [Example 152, 1-{[(trans)-7-methyl-2-oxo-3-(thieno[2,3-b]pyridin-3-ylmethyl)-1-oxa-3-azaspiro[4.5]dec-7-yl]methyl}-1H-benzimidazole-6-carbonitrile] | 0.1 to 10
CC(C)(C)c1cc(N2C[C@@]3(CCC[C@](C)(Cn4cnc5ccc(C#N)cc54)C3)OC2=O)no1 [Example 3, 1-({(5S,7S)-3-[5-(1,1-Dimethylethyl)-3-isoxazolyl]-7-methyl-2-oxo-1-oxa-3-azaspiro[4.5]dec-7-yl}methyl)-1H-benzimidazole-6-carbonitrile] | 0.1 to 10
C[C@]1(Cn2cnc3ccc(C#N)cc32)CCC[C@@]2(CN(c3cnc(C(F)(F)F)nc3)C(=O)O2)C1 [Example 25, 1-(((5S,7S)-7-Methyl-2-oxo-3-(2-(trifluoromethyl)pyrimidin-5-yl)-1-oxa-3-azaspiro[4.5]decan-7-yl)methyl)-1H-benzo[d]imidazole-6-carbonitrile] | 0.1 to 10
Cn1cc(-c2cccc(CN3C[C@@]4(CCC[C@](C)(Cn5cnc6ccc(C#N)cc65)C4)OC3=O)n2)cn1 [Example 161, 1-(((5S,7S)-7-methyl-3-((6-(1-methyl-1H-pyrazol-4-yl)pyridin-2-yl)methyl)-2-oxo-1-oxa-3-azaspiro[4.5]decan-7-yl)methyl)-1H-benzo[d]imidazole-6-carbonitrile] | 0.1 to 10
COc1cccnc1N1C[C@@]2(CCC[C@](C)(Cn3cnc4ccc(C#N)cc43)C2)OC1=O [Example 138, 1-({(5S,7S)-7-methyl-3-[3-(methyloxy)-2-pyridinyl]-2-oxo-1-oxa-3-azaspiro[4.5]dec-7-yl}methyl)-1H-benzimidazole-6-carbonitrile] | 50 to 500
CC(C)(C)c1noc(N2C[C@@]3(CCC[C@](C)(Cn4cnc5ccc(C#N)cc54)C3)OC2=O)c1Cl [Example 10, 1-({(5S,7S)-3-[4-Chloro-3-(1,1-dimethylethyl)-5-isoxazolyl]-7-methyl-2-oxo-1-oxa-3-azaspiro[4.5]dec-7-yl}methyl)-1H-benzimidazole-6-carbonitrile] | 0.1 to 10
CC(C)(C)n1ncc(N2C[C@@]3(CCC[C@](C)(Cn4cnc5ccc(C#N)cc54)C3)OC2=O)n1 [Example 50, 1-(((5S,7S)-3-(2-(tert-butyl)-2H-1,2,3-triazol-4-yl)-7-methyl-2-oxo-1-oxa-3-azaspiro[4.5]decan-7-yl)methyl)-1H-benzo[d]imidazole-6-carbonitrile] | 0.1 to 10
